Results from article PMC12195740, “Discovery of Novel Imidazothiazole-Based Hydroxamic Acid Derivatives as Potent Indoleamine 2,3-Dioxygenase 1 and Histone Deacetylase 6 Dual Inhibitors” (Molecules, 2025).

Tests used:
[1] = test system: Ac-histone H3 (substrate for HDACs 1, 2, and 3); test: Western blot of Ac-histone H3 in HCT-116 cells; type: cell-based; conditions: HCT-116, 20 μM, 24 h
Experimental: (§1) Since HDACs regulate the acetylation status of histone and nonhistone proteins in cells, the acetylation levels of histone H3 (a known substrate for HDACs 1, 2, and 3) and α-tubulin (a known substrate for HDAC6) are frequently used as markers of cellular HDAC activity. […] HCT-116 cells were incubated with compound 10e (5−20 μM) for 24 h, and the levels of acetylation of histone H3 and α-tubulin were detected by the Western blot. […]
(§2) with 75% cold ethanol at 4 °C overnight. After that, fixed cells were washed with PBS. Then, cells were isolated by centrifugation and stained with propidium iodide (KeyGEN BioTECH, China) for 30 min. The samples were measured using flow cytometry and analyzed by Flowjo software.
(§3) Section S 1.6 Western blot assay
(§4) Total cell lysates from cultured HCT-116 cells after treatment with compound 10e as mentioned earlier were obtained by lysing the cells in ice-cold RIPA buffer with protease and phosphatase inhibitor and stored at -20°C for future use. The protein concentrations were quantified by the Bradford method (Bio-Rad) using a Multimode Varioscan instrument (Thermo Fischer Scientific). […]
(§5) The in vivo antitumor activity of compound 10e was evaluated in the mouse colon carcinoma cell line CT-26 in BALB/c mice as described previously. […]

HDAC1 = HDAC1 (Homo sapiens, UniProt Q13547); test: HDAC isoform selectivity assay, HDAC1; type: biochemical
HDAC4 = HDAC4 (Homo sapiens, UniProt P56524); test: HDAC isoform selectivity assay, HDAC4; type: biochemical; conditions: read-out: HDAC4 % inhibition rate at 10 μM
[2] = test system: Ac-α-tubulin (substrate for HDAC6); test: Western blot of Ac-α-tubulin in HCT-116 cells; type: cell-based; conditions: HCT-116, 5−20 μM, 24 h
Experimental: as §1, §2, §3, §4, §5

rhIDO1 = target: T1, rhIDO1 (Homo sapiens, UniProt P14902); test: IDO1 inhibition assay; type: biochemical; conditions: means ± S.D. of three independent experiments
T1 construct: purchased
Experimental: Section S1. Biological assays […]
Section S 1.2 IDO1 inhibition assays
IDO1 inhibition assays were carried out according to the manufacturers’ procedures, as described previously. The standard assay mixture (100 μL) contained 50 mM of potassium phosphate buffer (pH = 6.5), 10 mM ascorbate, 10 μM methylene blue, 100 μg/mL catalase, 1 mM L-tryptophan and 10 μg/mL of rhIDO1. The plate was incubated at 37 °C in a dark environment, and reactions were terminated after 60 min by the addition of 50 μL of fluorogenic developer solution and further incubated at 45 °C in dark for 3 h. Then, the plate was allowed to cool to room temperature for at least 1 h. After centrifugation at 1500g for 5 min at 20 °C, the fluorescence […]
M1000 Pro, Tecan US, Morrisville, NC) in an end-point mode. […]

HDAC1, sequence (Q13547 whole entry, species assumed, canonical isoform): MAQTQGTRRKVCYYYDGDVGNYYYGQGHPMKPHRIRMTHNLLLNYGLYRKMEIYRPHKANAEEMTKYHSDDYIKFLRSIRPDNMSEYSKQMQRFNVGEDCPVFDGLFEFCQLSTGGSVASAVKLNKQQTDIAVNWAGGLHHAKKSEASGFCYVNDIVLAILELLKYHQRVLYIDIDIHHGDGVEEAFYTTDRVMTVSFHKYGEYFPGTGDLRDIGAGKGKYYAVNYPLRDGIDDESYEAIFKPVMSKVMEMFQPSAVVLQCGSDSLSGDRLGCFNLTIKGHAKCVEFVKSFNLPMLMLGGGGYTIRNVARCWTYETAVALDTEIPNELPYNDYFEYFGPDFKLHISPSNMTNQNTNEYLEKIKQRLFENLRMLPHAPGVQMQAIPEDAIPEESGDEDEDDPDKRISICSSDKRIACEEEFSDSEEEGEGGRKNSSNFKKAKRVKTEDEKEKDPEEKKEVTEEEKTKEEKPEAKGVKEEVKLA
HDAC4, sequence (P56524 whole entry, species assumed, canonical isoform): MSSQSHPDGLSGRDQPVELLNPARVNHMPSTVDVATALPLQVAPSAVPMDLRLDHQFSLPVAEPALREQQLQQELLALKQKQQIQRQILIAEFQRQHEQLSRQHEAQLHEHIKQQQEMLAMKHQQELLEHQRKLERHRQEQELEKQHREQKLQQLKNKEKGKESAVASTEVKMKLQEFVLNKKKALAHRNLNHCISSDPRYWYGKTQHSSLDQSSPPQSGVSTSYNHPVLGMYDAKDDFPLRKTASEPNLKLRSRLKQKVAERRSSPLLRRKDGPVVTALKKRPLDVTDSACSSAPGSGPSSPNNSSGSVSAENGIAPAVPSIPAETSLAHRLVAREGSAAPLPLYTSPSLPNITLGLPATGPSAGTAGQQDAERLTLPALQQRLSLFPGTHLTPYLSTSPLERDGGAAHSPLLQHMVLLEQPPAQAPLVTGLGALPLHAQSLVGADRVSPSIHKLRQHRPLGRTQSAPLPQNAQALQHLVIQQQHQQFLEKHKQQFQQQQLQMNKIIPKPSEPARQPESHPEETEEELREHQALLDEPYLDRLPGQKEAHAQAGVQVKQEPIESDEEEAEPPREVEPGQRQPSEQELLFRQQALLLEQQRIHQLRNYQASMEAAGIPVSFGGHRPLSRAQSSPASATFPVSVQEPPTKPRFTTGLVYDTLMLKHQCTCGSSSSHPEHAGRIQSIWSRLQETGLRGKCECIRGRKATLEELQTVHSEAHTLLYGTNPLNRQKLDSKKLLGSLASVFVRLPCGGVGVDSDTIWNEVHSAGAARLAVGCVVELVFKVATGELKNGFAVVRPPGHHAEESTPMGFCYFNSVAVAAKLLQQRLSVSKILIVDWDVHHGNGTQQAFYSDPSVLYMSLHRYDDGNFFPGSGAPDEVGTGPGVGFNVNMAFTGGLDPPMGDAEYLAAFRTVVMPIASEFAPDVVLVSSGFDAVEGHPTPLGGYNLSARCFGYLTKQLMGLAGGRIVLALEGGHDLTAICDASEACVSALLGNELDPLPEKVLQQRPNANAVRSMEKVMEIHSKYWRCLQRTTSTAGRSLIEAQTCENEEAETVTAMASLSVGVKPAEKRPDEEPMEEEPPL
T1 sequence (P14902 whole entry): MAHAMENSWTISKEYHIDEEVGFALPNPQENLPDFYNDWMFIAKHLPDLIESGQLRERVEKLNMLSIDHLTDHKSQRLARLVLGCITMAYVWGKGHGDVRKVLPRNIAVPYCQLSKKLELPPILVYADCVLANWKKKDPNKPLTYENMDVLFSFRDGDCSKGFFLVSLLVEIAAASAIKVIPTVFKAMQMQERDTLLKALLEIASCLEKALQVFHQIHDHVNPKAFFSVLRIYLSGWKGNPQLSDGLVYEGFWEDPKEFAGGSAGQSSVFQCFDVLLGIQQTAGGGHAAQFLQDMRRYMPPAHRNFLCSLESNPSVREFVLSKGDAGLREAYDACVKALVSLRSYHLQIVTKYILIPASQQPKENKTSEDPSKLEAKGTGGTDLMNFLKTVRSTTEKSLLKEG

In the case of `O=C(CCCCCCNc1ccc(NC(=O)c2cnc3scc(-c4ccc(Br)cc4)n23)cc1)NO` [Compound 10e, 3-(4-Bromophenyl)-N-{4-[(7-(hydroxyamino)-7-oxoheptyl)amino]phenyl}imidazo[2,1-b]thiazole-5-carboxamide], the “Ac-histone H3 levels” value [1] is reported as “slight increase”, the IC50 (HDAC1) is reported as 1080 nM and the inhibition at 10 µM (HDAC4) is reported as 9.58%. The Ac-α-tubulin levels [2] was “markedly increased” and the IC50 (rhIDO1) was 86 ± 20 nM.
